The values that follow come from US11825838B2, “Tricyclic carboxamides for controlling arthropods” (Bayer CropScience Aktiengesellschaft, priority 2017, dated 2023).

Format in all cases: in vivo
Experiment [1] deals with Boophilus microplus. Nature of the experiment: Boophilus microplus injection test. Conditions: application rate 20 μg/animal, assessed after 7 days by laying of fertile eggs. As for the experimental part:
Boophilus microplus—Injection Test
(§1) Solvent: dimethyl sulfoxide
To produce a suitable active compound preparation, 10 mg of active compound are mixed with 0.5 ml of solvent and the concentrate is diluted to the desired concentration with solvent.
1 μl of the active ingredient solution is injected into the abdomen of 5 engorged adult female cattle ticks (Boophilus microplus). The animals are transferred into dishes and kept in a climate-controlled room.
Efficacy is assessed after 7 days by laying of fertile eggs. Eggs which are not visibly fertile are stored in a climate-controlled cabinet until the larvae hatch after about 42 days. An efficacy of 100% means that none of the ticks has laid any fertile eggs; 0% means that all the eggs are fertile.

Experiment [2] concerns Ctenocephalides felis. Nature of the experiment: Ctenocephalides felis oral test. To be noted: application rate 100 ppm in citrated cattle blood, after 2 days. As for the experimental part:
Ctenocephalides felis—Oral Test
as §1
To produce a suitable active ingredient formulation, 10 mg of active ingredient are mixed with 0.5 ml of dimethyl sulfoxide. Dilution with citrated cattle blood gives the desired concentration.
About 20 unfed adult cat fleas (Ctenocephalides felis) are placed into a chamber which is closed at the top and bottom with gauze. A metal cylinder whose bottom end is closed with parafilm is placed onto the chamber. The cylinder contains the blood/active ingredient formulation, which can be imbibed by the fleas through the parafilm membrane.
After 2 days, the rate of extermination in % is determined. 100% means that all of the fleas have been killed; 0% means that none of the fleas have been killed.

In experiment [3] the test system is Lucilia cuprina. Kind of experiment: Lucilia cuprina test. To be noted: application rate 100 ppm, L1 larvae, after 2 days. As for the experimental part:
as §1
(§2) To produce a suitable active ingredient formulation, 10 mg of active ingredient are mixed with 0.5 ml of dimethyl sulfoxide, and the concentrate is diluted with water to the desired concentration.
About 20 L1 larvae of the Australian sheep blowfly (Lucilia cuprina) are transferred into a test vessel containing minced horsemeat and the active compound preparation of the desired concentration.
After 2 days, the rate of extermination in % is determined. 100% means that all the larvae have been killed; 0% means that no larvae have been killed.

For experiment [4], the system named is Musca domestica. Nature of the experiment: Musca domestica test. Conditions: application rate 100 ppm, adult houseflies, after 2 days. As to the method: as §1, §2
Vessels containing a sponge treated with sugar solution and the active ingredient formulation of the desired concentration are populated with 10 adult houseflies (Musca domestica).
After 2 days, the rate of extermination in % is determined. 100% means that all of the flies have been killed; 0% means that none of the flies have been killed.

The subject of experiment [5] is Phaedon cochleariae. Kind of experiment: Phaedon cochleariae spray test (PHAECO). Conditions: Phaedon cochleariae, 168 h; application rate 100 g/ha, spray, after 7 days; read-out: efficacy. As to the method:
Phaedon cochleariae—Spray Test
(§3) To produce a suitable active ingredient formulation, 1 part by weight of active ingredient is dissolved with the specified parts by weight of solvent and made up to the desired concentration with water containing an emulsifier concentration of 1000 ppm. To produce further test concentrations, the formulation is diluted with emulsifier-containing water.
After 7 days, the efficacy in % is determined. 100% means that all the beetle larvae have been killed; 0% means that no beetle larvae have been killed.
Phaedon cochleariae—Spray Test (PHAECO)
(§4) To produce a suitable active compound formulation, 1 part by weight of active compound is dissolved with the specified parts by weight of solvent and made up to the desired concentration with water containing an emulsifier concentration of 1000 ppm. To produce further test concentrations, the formulation is diluted with emulsifier-containing water.
Discs of Chinese cabbage leaves (Brassica pekinensis) are sprayed with an active compound formulation of the desired concentration and, after drying, populated with larvae of the mustard beetle (Phaedon cochleariae).
After the desired time, the efficacy in % is determined. 100% means that all the beetle larvae have been killed; 0% means that no beetle larvae have been killed.

The test system of experiment [6] is Spodoptera frugiperda. Nature of the experiment: Spodoptera frugiperda spray test (SPODFR). Conditions: Spodoptera frugiperda, 168 h; application rate 100 g/ha, spray, after 7 days; read-out: efficacy. As for the experimental part: Spodoptera frugiperda—Spray Test
as §3
Leaf discs of maize (Zea mays) are sprayed with an active ingredient formulation of the desired concentration and, after drying, populated with caterpillars of the armyworm (Spodoptera frugiperda).
After 7 days, the efficacy in % is determined. 100% means that all the caterpillars have been killed; 0% means that no caterpillar has been killed.
Spodoptera frugiperda—Spray Test (SPODFR)
as §4
Leaf discs of maize (Zea mays) are sprayed with an active compound formulation of the desired concentration and, after drying, populated with caterpillars of the armyworm (Spodoptera frugiperda).
After the desired time, the efficacy in % is determined. 100% means that all the caterpillars have been killed; 0% means that no caterpillar has been killed.

Experiment [7] has as its system Tetranychus urticae. Kind of experiment: Tetranychus urticae spray test, OP-resistant (TETRUR). To be noted: spray, after 6 days. As for the experimental part: Tetranychus urticae—Spray Test, OP-Resistant
as §3
Discs of bean leaves (Phaseolus vulgaris) infested with all stages of the greenhouse red spider mite (Tetranychus urticae) are sprayed with an active compound preparation of the desired concentration.
After 6 days, the efficacy in % is determined. 100% means that all the spider mites have been killed; 0% means that no spider mites have been killed.
Tetranychus urticae—Spray Test; OP-Resistant (TETRUR)
as §4
Discs of bean leaves (Phaseolus vulgaris) infested with all stages of the greenhouse red spider mite (Tetranychus urticae) are sprayed with an active compound formulation of the desired concentration.
After the desired time, the efficacy in % is determined. 100% means that all the spider mites have been killed; 0% means that no spider mites have been killed.

The subject of experiment [8] is Aedes aegypti strain MONHEIM. Kind of experiment: Aedes test (AEDSAE surface treatment). Conditions: application rate 100 mg/m^2, glazed tile, exposure 30 minutes, 24 hours after contact, read-out: efficacy (mortality). As for the experimental part:
Aedes Test (AEDSAE Surface Treatment)
(§5) Solvent: acetone+2000 ppm rapeseed oil methyl ester (RME)
To produce a suitable active compound formulation, the active compound is dissolved in the solvent (2 mg/ml). The active compound formulation is pipetted onto a glazed tile and, after it has dried off, adult mosquitoes of the species Aedes aegypti strain MONHEIM are placed onto the treated tile. The exposure time is 30 minutes.
(§6) 24 hours after contact with the treated surface, mortality in % is determined. 100% means that all mosquitoes have been killed; 0% means that none of the mosquitoes have been killed.

In experiment [9] the test system is Anopheles gambiae strain RSPH (homozygot kdr). Kind of experiment: Anopheles test (ANPHGB surface treatment). To be noted: application rate 100 mg/m^2, glazed tile, exposure 30 minutes, 24 hours after contact, read-out: efficacy (mortality). As for the experimental part:
Anopheles Test (ANPHGB Surface Treatment)
as §5
To produce a suitable active compound formulation, the active compound is dissolved in the solvent (2 mg/ml). The active compound formulation is pipetted onto a glazed tile and, after it has dried off, adult mosquitoes of the species Anopheles gambiae strain RSPH (homozygot kdr) are placed onto the treated tile. The exposure time is 30 minutes.
as §6

Experiment [10] deals with Anopheles funestus strain FUMOZ-R. Nature of the experiment: Anopheles test (ANPHFU surface treatment). Conditions: application rate 100 mg/m^2, glazed tile, exposure 30 minutes, 24 hours after contact, read-out: efficacy (mortality). As to the method: Anopheles Test (ANPHFU Surface Treatment)
as §5
To produce a suitable active compound formulation, the active compound is dissolved in the solvent (2 mg/ml). The active compound formulation is pipetted onto a glazed tile and, after it has dried off, adult mosquitoes of the species Anopheles funestus strain FUMOZ-R (Hunt et al., Med Vet Entomol. 2005 September; 19(3):271-5) are placed onto the treated tile. The exposure time is 30 minutes.
as §6

`N#CC1(NC(=O)c2csc(-c3cnn(-c4c(Cl)cc(C(F)(C(F)(F)F)C(F)(F)F)cc4Cl)c3)c2)CC1` [I-T1-13, N-(1-cyanocyclopropyl)-5-{1-[2,6-dichloro-4-(1,1,1,2,3,3,3-heptafluoropropan-2-yl)phenyl]-1H-pyrazol-4-yl}thiophene-3-carboxamide]: the efficacy is on record as 100% in [1], 90% in [7] (application rate 20 g/ha) and 100% in experiment [7] (application rate 100 g/ha). Moreover, the “efficacy (rate of extermination)” value in experiment [2], in experiment [3] and in experiment [4] was 100% in each case. Also, the pest or weed control at 100 g/ha in [5] and in experiment [6] was 100% in each case. Besides, the mortality – broadly, the share of the test organisms that died – at 100 mg/m2 in experiment [8] is 80 to 100%.
For `Cn1c(C(=O)NC2CC2)cc(-c2cnn(-c3c(Cl)cc(C(F)(C(F)(F)F)C(F)(F)F)cc3Cl)c2)c1Cl` [I-T1-9, 5-chloro-N-cyclopropyl-4-{1-[2,6-dichloro-4-(1,1,1,2,3,3,3-heptafluoropropan-2-yl)phenyl]-1H-pyrazol-4-yl}-1-methyl-1H-pyrrole-2-carboxamide], the pest or weed control at 100 g/ha in [5] and in experiment [6] was 100% in each case. In addition, the mortality at 100 mg/m2 in experiment [9], in experiment [10] and in [8] was 80 to 100% in each case.
